In the supplement of paper PMC7244745:
± gives the uncertainty stated by the source.

Assays:
[1] = test system: Klebsiella pneumoniae ATCC 13882; experiment: onset of ureolytic pH increase; higher = more delayed ureolysis (inhibition)
Method: (§1)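 Klebsiella pneumoniae ATCC 13882 (start OD600 0.05) grown in M9U medium with 40 mM urea and phenol red plus inhibitor, in triplicate in 96-well plates. A557 and OD630 were read every 15 min for 24 h. Ureolysis was followed as the pH-related A557-A630: onset time, Gompertz-fit rate and final value. Growth was followed as OD630.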

[2] = test system: Klebsiella pneumoniae ATCC 13882; experiment: final OD630 (growth) after 24 h; higher = more bacterial growth; extreme values may be limits of the assay
Method: as §1

[3] = test system: Klebsiella pneumoniae ATCC 13882; experiment: final pH-related absorbance (A557-A630) after 24 h (absorbance units); higher = more ureolysis; extreme values may be limits of the assay
Method: as §1

[4] = test system: Klebsiella pneumoniae ATCC 13882; experiment: rate of pH (A557-A630) increase, Gompertz fit (10^-4 s-1); higher = faster ureolysis; extreme values may be limits of the assay
Method: as §1

Compound | onset of ureolytic pH increase ([1]; 0.1 mM) [h] | onset of ureolytic pH increase ([1]; 1 mM) [h] | onset of ureolytic pH increase ([1]; 10 mM) [h] | final OD630 ([2]; 0.1 mM) | final OD630 ([2]; 1 mM) | final OD630 ([2]; 10 mM) | final pH-related absorbance ([3]; 0.1 mM) | final pH-related absorbance ([3]; 1 mM) | final pH-related absorbance ([3]; 10 mM) | rate of pH ([4]; 0.1 mM) | rate of pH ([4]; 1 mM) | rate of pH ([4]; 10 mM) | other results
O=C(O)CCC(CC(=O)O)C(=O)O (stereo not given) [1,2,4-butanetricarboxylic acid] | 11.425 ± 0.00233 | 11.31 ± 0.055 | > 15 | 0.424 ± 0.0051 | 0.433 ± 0.0031 | 0 | 0.33 ± 0.0058 | 0.277 ± 0.0026 | 0 | 1.526 ± 0.014 | 1.58 ± 0.019 | 0 | 
NC(=S)Nc1cccc(C(=O)O)c1 [1-(3-Carboxyphenyl)-2-thiourea] |  |  |  |  |  |  |  |  |  |  |  |  | onset of ureolytic pH increase ([1]; 0.00075 mM): 7.27 ± 0.108 h; onset of ureolytic pH increase ([1]; 0.0075 mM): 7.06 ± 0.3 h; onset of ureolytic pH increase ([1]; 0.075 mM): 7.25 ± 0.107 h; final OD630 ([2]; 0.00075 mM): 0.489 ± 0.005; final OD630 ([2]; 0.0075 mM): 0.51 ± 0.017; final OD630 ([2]; 0.075 mM): 0.49 ± 0.01; final pH-related absorbance ([3]; 0.00075 mM): 0.246 ± 0.012; final pH-related absorbance ([3]; 0.0075 mM): 0.27 ± 0.023; final pH-related absorbance ([3]; 0.075 mM): 0.24 ± 0.011; rate of pH ([4]; 0.00075 mM): 1.92 ± 0.078; rate of pH ([4]; 0.0075 mM): 2.06 ± 0.18; rate of pH ([4]; 0.075 mM): 2.15 ± 0.048
O[C@@H](CS)[C@@H](O)CS [1.4-dithiothreitol] | 10.2 ± 0.317 | 16.3 ± 0.317 | 16.84 ± 0.118 | 0.432 ± 0.079 | 0.306 ± 0.0084 | 0.264 ± 0.0063 | 0.381 ± 0.013 | 0.274 ± 0.02 | 0.137 ± 0.013 | 1.81 ± 0.074 | 0.11 ± 0.0047 | 0.0642 ± 0.0044 | 
O=C1CC(=O)NC(=S)N1 [2-Thiobarbituric acid] |  |  |  |  |  |  |  |  |  |  |  |  | onset of ureolytic pH increase ([1]; 0.012 mM): 9.28 ± 0.0217 h; onset of ureolytic pH increase ([1]; 0.118 mM): 9.68 ± 0.4 h; onset of ureolytic pH increase ([1]; 1.18 mM): > 15 h; final OD630 ([2]; 0.012 mM): 0.449 ± 0.007; final OD630 ([2]; 0.118 mM): 0.437 ± 0.008; final OD630 ([2]; 1.18 mM): 0.303 ± 0.028; final pH-related absorbance ([3]; 0.012 mM): 0.201 ± 0.008; final pH-related absorbance ([3]; 0.118 mM): 0.194 ± 0.006; final pH-related absorbance ([3]; 1.18 mM): 0; rate of pH ([4]; 0.012 mM): 2.14 ± 0.06; rate of pH ([4]; 0.118 mM): 2.04 ± 0.024; rate of pH ([4]; 1.18 mM): 0
O=[N+]([O-])C(Br)(CO)CO [2-bromo-2-nitropropane-1.3-diol] | > 25 | > 25 | > 25 | 0 | 0 | 0 | 0 | 0 | 0 | 0 | 0 | 0 | 
OCCS [2-mercaptoethanol] | 10 ± 0.125 | > 25 | > 25 | 0.416 ± 0.0027 | 0.208 ± 0.0036 | 0.155 ± 0.0041 | 0.19 ± 0.0096 | 0 | 0 | 1.72 ± 0.061 | 0 | 0 | 
CC1=CC(=O)C(C)=CC1=O [2.5-dimethyl-1.4-benzoquinone] |  |  |  |  |  |  |  |  |  |  |  |  | onset of ureolytic pH increase ([1]; 0.011 mM): 9.905 ± 0.04 h; onset of ureolytic pH increase ([1]; 0.107 mM): 15.8 h; onset of ureolytic pH increase ([1]; 1.07 mM): 0 min; final OD630 ([2]; 0.011 mM): 0.33 ± 0.011; final OD630 ([2]; 0.107 mM): 0.336; final OD630 ([2]; 1.07 mM): 0; final pH-related absorbance ([3]; 0.011 mM): 0.152 ± 0.0068; final pH-related absorbance ([3]; 0.107 mM): 0.116; final pH-related absorbance ([3]; 1.07 mM): 0.475 ± 0.011; rate of pH ([4]; 0.011 mM): 1.46 ± 0.047; rate of pH ([4]; 0.107 mM): 1.97; rate of pH ([4]; 1.07 mM): 0.535 ± 0.0079
O=c1oc2ccccc2c(O)c1Cc1c(O)c2ccccc2oc1=O [3.3'-methylene-bis-(4-hydroxycoumarin)] |  |  |  |  |  |  |  |  |  |  |  |  | onset of ureolytic pH increase ([1]; 0.0035 mM): 9.383 ± 0.0183 h; onset of ureolytic pH increase ([1]; 0.035 mM): 9.87 ± 0.5 h; onset of ureolytic pH increase ([1]; 0.35 mM): 10.2 ± 0.148 h; final OD630 ([2]; 0.0035 mM): 0.424 ± 0.0021; final OD630 ([2]; 0.035 mM): 0.409 ± 0.012; final OD630 ([2]; 0.35 mM): 0.403 ± 0.0058; final pH-related absorbance ([3]; 0.0035 mM): 0.161 ± 0.0024; final pH-related absorbance ([3]; 0.035 mM): 0.158 ± 0.0007; final pH-related absorbance ([3]; 0.35 mM): 0.16 ± 0.0029; rate of pH ([4]; 0.0035 mM): 1.45 ± 0.019; rate of pH ([4]; 0.035 mM): 1.44 ± 0.039; rate of pH ([4]; 0.35 mM): 1.4
OB(O)c1ccc(Br)cc1 [4-bromophenylboronic acid] |  |  |  |  |  |  |  |  |  |  |  |  | onset of ureolytic pH increase ([1]; 0.0017 mM): 12.4 ± 0.317 h; onset of ureolytic pH increase ([1]; 0.017 mM): 0 min; onset of ureolytic pH increase ([1]; 0.173 mM): > 25 h; final OD630 ([2]; 0.0017 mM): 0.451 ± 0.0066; final OD630 ([2]; 0.017 mM): 0; final OD630 ([2]; 0.173 mM): 0; final pH-related absorbance ([3]; 0.0017 mM): 0.12 ± 0.0018; final pH-related absorbance ([3]; 0.017 mM): 0.269 ± 0.042; final pH-related absorbance ([3]; 0.173 mM): 0; rate of pH ([4]; 0.0017 mM): 0.0566 ± 0.0019; rate of pH ([4]; 0.017 mM): 0.0294 ± 0.0052; rate of pH ([4]; 0.173 mM): 0
CC(=O)NO [Acetohydroxamic acid] | 8.46 ± 0.217 | 12.1 ± 0.153 | > 15 | 0.479 ± 0.016 | 0.356 ± 0.01 | 0.258 ± 0.004 | 0.437 ± 0.044 | 0.057 ± 0.006 | 0 | 1.12 ± 0.047 | 1.31 ± 0.054 | 0 | 
